Results from patent US20230024096A1, “BIFUNCTIONAL COMPOUNDS FOR THE TREATMENT OF CANCER” (Hoffmann-La Roche Inc., priority 2019, published 2023).

Biological target: T1, SMARCA2 (Homo sapiens, UniProt P51531)
T1 construct: endogenous in cells; host or cells: HT1080 (CRISPR HiBiT knock-in clone, generated in house)
Test: SMARCA2 HiBiT degradation assay (cellular)
Assay type: cell-based
Details: table head names A549; for DC50: 6 h incubation, HiBiT-tagged SMARCA2, luminescence read-out, read-out: HiBit A549 SMARCA2 IP (nM) 6 h; for Emax: A549, 6 h incubation, Emax = amount of residual protein remaining in the cell following compound treatment

T1 sequence (P51531 whole entry): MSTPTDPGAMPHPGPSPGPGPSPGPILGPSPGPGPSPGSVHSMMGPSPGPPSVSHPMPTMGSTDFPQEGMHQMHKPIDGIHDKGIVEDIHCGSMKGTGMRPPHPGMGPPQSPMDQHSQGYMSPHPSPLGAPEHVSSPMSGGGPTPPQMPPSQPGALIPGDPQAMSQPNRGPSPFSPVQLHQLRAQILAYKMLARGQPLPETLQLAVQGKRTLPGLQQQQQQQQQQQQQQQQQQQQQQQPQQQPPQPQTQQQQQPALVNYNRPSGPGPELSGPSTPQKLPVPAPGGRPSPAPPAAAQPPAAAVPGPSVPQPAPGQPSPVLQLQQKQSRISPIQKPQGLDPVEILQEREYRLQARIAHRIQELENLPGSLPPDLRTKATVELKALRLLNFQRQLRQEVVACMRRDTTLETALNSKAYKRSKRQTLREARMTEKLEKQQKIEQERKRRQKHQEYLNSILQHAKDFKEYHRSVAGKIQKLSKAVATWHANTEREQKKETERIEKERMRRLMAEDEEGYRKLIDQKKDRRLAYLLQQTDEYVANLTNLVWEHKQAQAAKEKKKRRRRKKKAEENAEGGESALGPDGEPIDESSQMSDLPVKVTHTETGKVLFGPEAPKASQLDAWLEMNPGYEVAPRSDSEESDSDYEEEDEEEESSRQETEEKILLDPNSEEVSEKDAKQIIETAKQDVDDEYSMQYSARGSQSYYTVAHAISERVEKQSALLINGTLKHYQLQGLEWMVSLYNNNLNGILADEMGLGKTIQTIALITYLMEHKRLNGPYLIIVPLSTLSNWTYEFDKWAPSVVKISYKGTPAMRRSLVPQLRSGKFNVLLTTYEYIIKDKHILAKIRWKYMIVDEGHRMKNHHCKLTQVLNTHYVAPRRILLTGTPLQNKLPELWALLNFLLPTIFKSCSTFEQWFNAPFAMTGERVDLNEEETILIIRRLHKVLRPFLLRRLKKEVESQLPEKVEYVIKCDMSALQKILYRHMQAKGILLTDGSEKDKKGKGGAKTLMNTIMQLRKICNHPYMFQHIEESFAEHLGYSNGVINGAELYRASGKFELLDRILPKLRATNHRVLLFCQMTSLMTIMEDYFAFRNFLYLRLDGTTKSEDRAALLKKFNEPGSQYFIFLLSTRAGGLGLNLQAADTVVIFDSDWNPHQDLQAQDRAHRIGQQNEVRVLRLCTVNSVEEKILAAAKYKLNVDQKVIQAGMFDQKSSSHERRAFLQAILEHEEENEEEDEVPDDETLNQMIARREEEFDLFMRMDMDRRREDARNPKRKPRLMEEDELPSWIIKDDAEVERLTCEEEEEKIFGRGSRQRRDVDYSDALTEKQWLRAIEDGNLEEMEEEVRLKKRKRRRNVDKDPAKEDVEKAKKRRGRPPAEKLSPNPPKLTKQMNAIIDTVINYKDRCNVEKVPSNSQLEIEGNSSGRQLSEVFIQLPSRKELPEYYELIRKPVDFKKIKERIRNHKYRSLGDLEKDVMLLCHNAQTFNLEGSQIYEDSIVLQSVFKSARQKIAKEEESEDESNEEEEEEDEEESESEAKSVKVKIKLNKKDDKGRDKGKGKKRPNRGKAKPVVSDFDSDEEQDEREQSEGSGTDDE

Row | SMILES | DC50 [nM] | Emax [%]
1 | Nc1nnc(-c2ccccc2O)cc1N1CC2CCC(C1)N2c1cccc(OCCN2CCN(CCOC3CCN(c4ccc5c(c4)C(=O)N(C4CCC(=O)NC4=O)C5=O)CC3)CC2)c1 (racemic) [Example 35, rac-5-[4-[2-[4-[2-[3-[3-[3-amino-6-(2-hydroxyphenyl)pyridazin-4-yl]-3,8-diazabicyclo[3.2.1]octan-8-yl]phenoxy]ethyl]piperazin-1-yl]ethoxy]-1-piperidyl]-2-(2,6-dioxo-3-piperidyl)isoindoline-1,3-dione] | 22 | 33
2 | Nc1nnc(-c2ccccc2O)cc1N1CC2CCC(C1)N2c1cccc(OCCN2CCN(CCCOC3CCN(c4ccc5c(c4)C(=O)N(C4CCC(=O)NC4=O)C5=O)CC3)CC2)c1 (racemic) [Example 36, rac-5-[4-[3-[4-[2-[3-[3-[3-amino-6-(2-hydroxyphenyl)pyridazin-4-yl]-3,8-diazabicyclo[3.2.1]octan-8-yl]phenoxy]ethyl]piperazin-1-yl]propoxy]-1-piperidyl]-2-(2,6-dioxo-3-piperidyl)isoindoline-1,3-dione] | 16 | 27
3 | Nc1nnc(-c2ccccc2O)cc1N1CC2CCC(C1)N2c1cccc(OCCN2CCN(CC3CCN(c4ccc5c(c4)C(=O)N(C4CCC(=O)NC4=O)C5=O)CC3)CC2)c1 (racemic) [Example 38, rac-5-[4-[[4-[2-[3-[3-[3-amino-6-(2-hydroxyphenyl)pyridazin-4-yl]-3,8-diazabicyclo[3.2.1]octan-8-yl]phenoxy]ethyl]piperazin-1-yl]methyl]-1-piperidyl]-2-(2,6-dioxo-3-piperidyl)isoindoline-1,3-dione] | 20 | 29
4 | Nc1nnc(-c2ccccc2O)cc1N1CC2CCC(C1)N2c1cccc(OCCN2CCN(C(=O)N3CCC(Oc4ccc5c(c4)C(=O)N(C4CCC(=O)NC4=O)C5=O)CC3)CC2)c1 (racemic) [Example 40, rac-5-[[1-[4-[2-[3-[3-[3-amino-6-(2-hydroxyphenyl)pyridazin-4-yl]-3,8-diazabicyclo[3.2.1]octan-8-yl]phenoxy]ethyl]piperazine-1-carbonyl]-4-piperidyl]oxy]-2-(2,6-dioxo-3-piperidyl)isoindoline-1,3-dione] | 22 | 32
5 | Nc1nnc(-c2ccccc2O)cc1N1CC2CCC(C1)N2c1cccc(OCCN2CCN(C(=O)N3CCC(Oc4cccc5c4C(=O)N(C4CCC(=O)NC4=O)C5=O)CC3)CC2)c1 (racemic) [Example 41, rac-4-[[1-[4-[2-[3-[3-[3-amino-6-(2-hydroxyphenyl)pyridazin-4-yl]-3,8-diazabicyclo[3.2.1]octan-8-yl]phenoxy]ethyl]piperazine-1-carbonyl]-4-piperidyl]oxy]-2-(2,6-dioxo-3-piperidyl)isoindoline-1,3-dione] | 46 | 48
6 | Nc1nnc(-c2ccccc2O)cc1N1CC2CCC(C1)N2c1cccc(OCCN2CCN(C(=O)CCNC(=O)C3CCN(c4ccc5c(c4)C(=O)N(C4CCC(=O)NC4=O)C5=O)CC3)CC2)c1 (racemic) [Example 42, rac-N-[3-[4-[2-[3-[3-[3-amino-6-(2-hydroxyphenyl)pyridazin-4-yl]-3,8-diazabicyclo[3.2.1]octan-8-yl]phenoxy]ethyl]piperazin-1-yl]-3-oxo-propyl]-1-[2-(2,6-dioxo-3-piperidyl)-1,3-dioxo-isoindolin-5-yl]piperidine-4-carboxamide] | 519 | 49
7 | Nc1nnc(-c2ccccc2O)cc1N1CC2CCC(C1)N2c1cccc(OCCN2CCN(C(=O)CN3CCC(c4ccc(OC5CCC(=O)NC5=O)cc4)CC3)CC2)c1 (racemic) [Example 43, rac-3-[4-[1-[2-[4-[2-[3-[3-[3-amino-6-(2-hydroxyphenyl)pyridazin-4-yl]-3,8-diazabicyclo[3.2.1]octan-8-yl]phenoxy]ethyl]piperazin-1-yl]-2-oxo-ethyl]-4-piperidyl]phenoxy]piperidine-2,6-dione] | 32 | 31
8 | Nc1nnc(-c2ccccc2O)cc1OC1CCCN(c2ccc(N3CCN(C(=O)CCCCCCCC(=O)N4CC[C@H](Nc5cccc6c5C(=O)N(C5CCC(=O)NC5=O)C6=O)C4)CC3)cc2)C1 (mixture of isomers) [Example 45, 2-(2,6-dioxo-3-piperidyl)-4-[[rac-(3S)-1-[9-[4-[4-[3-[3-amino-6-(2-hydroxyphenyl)pyridazin-4-yl]oxy-1-piperidyl]phenyl]piperazin-1-yl]-9-oxo-nonanoyl]pyrrolidin-3-yl]amino]isoindoline-1,3-dione] | 627 | 58
9 | Nc1nnc(-c2ccccc2O)cc1N1CC2CCC(C1)N2c1cccc(CN2CCN(C(=O)C3CCN(c4ccc5c(c4)C(=O)N(C4CCC(=O)NC4=O)C5=O)CC3)CC2)c1 (racemic) [Example 46, rac-5-[4-[4-[[3-[3-[3-Amino-6-(2-hydroxyphenyl)pyridazin-4-yl]-3,8-diazabicyclo[3.2.1]octan-8-yl]phenyl]methyl]piperazine-1-carbonyl]-1-piperidyl]-2-(2,6-dioxo-3-piperidyl)isoindoline-1,3-dione] | 12 | 24
10 | Nc1nnc(-c2ccccc2O)cc1N1CC2CCC(C1)N2c1cccc(CN2CCN(C(=O)CCC3CCN(c4ccc5c(c4)C(=O)N(C4CCC(=O)NC4=O)C5=O)CC3)CC2)c1 (racemic) [Example 47, rac-5-[4-[3-[4-[[3-[3-[3-Amino-6-(2-hydroxyphenyl)pyridazin-4-yl]-3,8-diazabicyclo[3.2.1]octan-8-yl]phenyl]methyl]piperazin-1-yl]-3-oxo-propyl]-1-piperidyl]-2-(2,6-dioxo-3-piperidyl)isoindoline-1,3-dione] | 17 | 42
11 | Nc1nnc(-c2ccccc2O)cc1N1CC2CCC(C1)N2c1cccc(CN2CCN(C(=O)CC3CCN(c4ccc5c(c4)C(=O)N(C4CCC(=O)NC4=O)C5=O)CC3)CC2)c1 (racemic) [Example 48, rac-5-[4-[2-[4-[[3-[3-[3-Amino-6-(2-hydroxyphenyl)pyridazin-4-yl]-3,8-diazabicyclo[3.2.1]octan-8-yl]phenyl]methyl]piperazin-1-yl]-2-oxo-ethyl]-1-piperidyl]-2-(2,6-dioxo-3-piperidyl)isoindoline-1,3-dione] | 15 | 45
12 | Nc1nnc(-c2ccccc2O)cc1N1CC2CCC(C1)N2c1cccc(OCCN2CCN(C(=O)N3CCN(c4ccc5c(c4)C(=O)N(C4CCC(=O)NC4=O)C5=O)CC3)CC2)c1 (racemic) [Example 49, rac-5-[4-[4-[2-[3-[3-[3-amino-6-(2-hydroxyphenyl)pyridazin-4-yl]-3,8-diazabicyclo[3.2.1]octan-8-yl]phenoxy]ethyl]piperazine-1-carbonyl]piperazin-1-yl]-2-(2,6-dioxo-3-piperidyl)isoindoline-1,3-dione] | 4 | 39
13 | Nc1nnc(-c2ccccc2O)cc1N1CC2CCC(C1)N2c1cccc(OCCN2CCN(C(=O)N3CCC(c4ccc(OC5CCC(=O)NC5=O)cc4)CC3)CC2)c1 (racemic) [Example 50, rac-3-[4-[1-[4-[2-[3-[3-[3-amino-6-(2-hydroxyphenyl)pyridazin-4-yl]-3,8-diazabicyclo[3.2.1]octan-8-yl]phenoxy]ethyl]piperazine-1-carbonyl]-4-piperidyl]phenoxy]piperidine-2,6-dione] | 16 | 44
14 | Nc1nnc(-c2ccccc2O)cc1N1CC2CCC(C1)N2c1cccc(OCCN2CCN(C(=O)N3CCN(c4ccc(OC5CCC(=O)NC5=O)cc4)CC3)CC2)c1 (racemic) [Example 51, rac-3-[4-[4-[4-[2-[3-[3-[3-amino-6-(2-hydroxyphenyl)pyridazin-4-yl]-3,8-diazabicyclo[3.2.1]octan-8-yl]phenoxy]ethyl]piperazine-1-carbonyl]piperazin-1-yl]phenoxy]piperidine-2,6-dione] | 86 | 54
15 | Nc1nnc(-c2ccccc2O)cc1N1CC2CCC(C1)N2c1cccc(OCCN2CCN(C(=O)N3CCC4(CC3)CCN(c3ccc5c(c3)C(=O)N(C3CCC(=O)NC3=O)C5=O)CC4)CC2)c1 (racemic) [Example 52, rac-5-[3-[4-[2-[3-[3-[3-amino-6-(2-hydroxyphenyl)pyridazin-4-yl]-3,8-diazabicyclo[3.2.1]octan-8-yl]phenoxy]ethyl]piperazine-1-carbonyl]-3,9-diazaspiro[5.5]undecan-9-yl]-2-(2,6-dioxo-3-piperidyl)isoindoline-1,3-dione] | 37 | 52
16 | Nc1nnc(-c2ccccc2O)cc1N1CC2CCC(C1)N2c1cccc(CN2CCN(CCOC3CCN(c4ccc5c(c4)C(=O)N(C4CCC(=O)NC4=O)C5=O)CC3)CC2)c1 (racemic) [Example 55, rac-5-[4-[2-[4-[[3-[3-[3-amino-6-(2-hydroxyphenyl)pyridazin-4-yl]-3,8-diazabicyclo[3.2.1]octan-8-yl]phenyl]methyl]piperazin-1-yl]ethoxy]-1-piperidyl]-2-(2,6-dioxo-3-piperidyl)isoindoline-1,3-dione] | 19 | 35
17 | Nc1nnc(-c2ccccc2O)cc1N1CC2CCC(C1)N2c1cccc(CN2CCN(CCCOC3CCN(c4ccc5c(c4)C(=O)N(C4CCC(=O)NC4=O)C5=O)CC3)CC2)c1 (racemic) [Example 56, rac-5-[4-[3-[4-[[3-[3-[3-Amino-6-(2-hydroxyphenyl)pyridazin-4-yl]-3,8-diazabicyclo[3.2.1]octan-8-yl]phenyl]methyl]piperazin-1-yl]propoxy]-1-piperidyl]-2-(2,6-dioxo-3-piperidyl)isoindoline-1,3-dione] | 10 | 36
18 | Nc1nnc(-c2ccccc2O)cc1N1CC2CCC(C1)N2c1cccc(CC2CCN(C(=O)CCNc3cccc4c3C(=O)N(C3CCC(=O)NC3=O)C4=O)CC2)c1 (racemic) [Example 58, rac-4-[[3-[4-[[3-[3-[3-amino-6-(2-hydroxyphenyl)pyridazin-4-yl]-3,8-diazabicyclo[3.2.1]octan-8-yl]phenyl]methyl]-1-piperidyl]-3-oxo-propyl]amino]-2-(2,6-dioxo-3-piperidyl)isoindoline-1,3-dione] | 43 | 59
